Results taken from patent publication US20240277749A1, “NEW FORMULATIONS COMPRISING AZACITIDINE” (NANEXA AB, priority 2021, published 2024).

Assays:
[1] = standard of care over seven consecutive days by injection or infusions, cited from earlier work
clinical = conditions: human, plasma, sc, 100 mg/m2

In the case of `Nc1ncn([C@@H]2O[C@H](CO)[C@@H](O)[C@H]2O)c(=O)n1` [azacitidine, 4-amino-1-®-D-ribofuranosyl-s-triazin-2(1H)-one], the “average AUC∞” value ([1]; 525 mg/m^2 of BSA) is given as 960 ± 458 ng·h/mL, the “average Cmax” value [1] is given as 750 ± 403 ng/mL and the AUC(0-inf) (clinical) is given as 1120 ng·h/mL. For the same compound, the Cmax (clinical) was 562 ng/mL, the Tmax (clinical) was 0.433 h and the half-life (clinical) was 6.82 h.
